# According to paper PMC10574767, “Extractives from Artemisia afra with Anti-Bacterial and Anti-Fungal Properties” (Plants, 2023):
# Experiments:
# [1] = in vitro; details: monkey, LC50
# Procedure: Cytotoxicity of compounds and extracts was tested against mammalian cells using the MTT assay. MCF-7 cancer cells were grown in a 5% CO2 incubator in Dulbecco’s Modified Eagle’s Medium (DMEM, Highveld Biological, Johannesburg, South Africa) supplemented with 10% fetal calf serum (Adcock-Ingram, Johannesburg, South Africa) and 1% penicillin-streptomycin (10,000 U/mL and 10 mg/mL streptomycin, Sigma Aldrich). In a 5% CO2 incubator, Vero cells were grown in a minimal essential medium (MEM, Highveld Biological, South Africa) supplemented with 5% fetal calf serum (Adcock-Ingram) and 0.1% gentamicin (Virbac). Cell suspensions were obtained from 70–80% confluent monolayer cultures and were plated in 96-well cell culture plates at a density of 1 × 10^4. Plates were incubated in a 5% CO2 incubator for 24 h at 37 °C. The cells were exposed to the extracts or compounds dissolved in the media at different concentrations for 48 h. Positive and negative controls were doxorubicin (Pfizer, New York, NYC, USA) and acetone or DMSO, respectively. After that, the wells were rinsed with phosphate-buffered saline (PBS, Sigma) and 200 µL of fresh medium was poured into the wells. Thirty microlitres (5 mg/mL) of MTT (Sigma) dissolved in PBS was added to each well, and the plates were incubated at 37 °C for 4 h. The medium from the wells was removed, rinsed, and 50 µL of 100% DMSO was added to the wells. At a wavelength of 570 nm, absorbance was measured using a microplate reader (BioTek Synergy, Beijing, China). Each sample concentration was tested in quadruplicate in two repeats (n = 8), and the concentration causing 50% inhibition of cell viability (LC50) was calculated. Selectivity index (SI) values for the extracts/compounds were obtained by dividing cytotoxicity LC50 values of normal (Vero) cells by those of the cancer cells.
# [2] = tested on: Staphylococcus aureus, Bacillus thuringiensis, Escherichia coli, Enterobacter cloacae, and Klebsiella pneumoniae; parameters: method as in PMID 12120818; details: 1 mg of compound; cited from earlier work
# [3] = tested on: C. albicans; parameters: method as in ref 35 = [35]; 35. Naika H.R. Krishna V. Harish B.G. Khadeer Ahamed B.M. Mahadevan K.M. Antimicrobial Activity of Bioactive Constituents Isolated from the Leaves of Naravelia zeylanica (L.) DC Int. J. Res. Pharm. Bi; details: cited from earlier work
smiles,measurement,setting,value
"CC1(C)CC[C@]2(C)CC=C3[C@]4(C)CC[C@H]5C(C)(C)[C@@H](O)CC[C@]5(C)[C@H]4CC[C@@]3(C)[C@@H]2C1 [Compound 3β-Taraxerol, 3β-taraxerol]",CC50 at 48 h,[1],> 200 µg/mL
same,Antimicrobial activity against two Gram-positive and three Gram-negative bacteria,[2],moderate antimicrobial activity
same,Activity against C. albicans,[3],no activity
